Measurements reported in patent US5840684A, “Glycopeptide antibiotic derivatives” (Eli Lilly and Company, priority 1995, dated 1998).
Values after ≈ are worked out from the molar mass of the structure shown.

Experiments:
[1] = system: Staphylococcus aureus S13E; type: cell-based
Description: (§1) The MIC's were determined using a standard broth micro-dilution assay.

[2] = system: Entercoccus faecium 180-1; test: broth micro-dilution MIC; type: cell-based
Description: as §1

[3] = system: Entercoccus faecium 276; test: broth micro-dilution MIC; type: cell-based
Description: as §1

[4] = system: Staphylococcus aureus 446; test: broth micro-dilution MIC; type: cell-based
Description: as §1

[5] = system: Staphylococcus aureus 447; test: broth micro-dilution MIC; type: cell-based
Description: as §1

[6] = system: Staphylococcus aureus 489; test: broth micro-dilution MIC; type: cell-based
Description: as §1

[7] = system: Staphylococcus aureus SA1199A; test: broth micro-dilution MIC; type: cell-based
Description: as §1

[8] = system: Staphylococcus aureus X400; test: broth micro-dilution MIC; type: cell-based
Description: as §1

[9] = system: Streptococcus pyogenes C203; test: broth micro-dilution MIC; type: cell-based
Description: as §1

[10] = system: Entercoccus faecium 180; test: broth micro-dilution MIC; type: cell-based; settings: Entercoccus faecium 180
Description: (§2) The formula I compounds have in vitro and in vivo activity against Gram-positive pathogenic bacteria. The MIC's were determined using a standard broth micro-dilution assay.

[11] = system: Haemophilus influenzae RD; test: broth micro-dilution MIC; type: cell-based; settings: Haemophilus influenzae RD
Description: as §2

[12] = system: Staphylococcus epidermidis 270; test: broth micro-dilution MIC; type: cell-based
Description: as §2

[13] = system: Staphylococcus haemolyticus 105; test: broth micro-dilution MIC; type: cell-based
Description: as §2

[14] = system: Staphylococcus haemolyticus 415; test: broth micro-dilution MIC; type: cell-based
Description: as §2

[15] = system: Streptococcus pneumoniae P1; test: broth micro-dilution MIC; type: cell-based
Description: as §2

[16] = system: vancomycin-resistant enterococci; test: broth micro-dilution, mean geometric MIC; type: cell-based, Enterococcus faecium and Enterococcus faecalis; settings: enterococci, 24-hour incubation
[17] = system: vancomycin-susceptible enterococci; test: broth micro-dilution, mean geometric MIC; type: cell-based, Enterococcus faecium and Enterococcus faecalis; settings: enterococci, 24-hour incubation
[18] = system: Staphylococcus aureus SA1199B; type: cell-based
Description: as §1

[19] = system: Staphylococcus aureus SA1199; test: broth micro-dilution MIC; type: cell-based
Description: as §1

[20] = system: Staphylococcus aureus X778; test: broth micro-dilution MIC; type: cell-based
Description: as §1

[21] = system: Entercoccus faecium 2041; test: broth micro-dilution MIC; type: cell-based; settings: Entercoccus faecium 2041
Description: as §2

[22] = system: Enterococcus gallinarum 245; test: broth micro-dilution MIC; type: cell-based; settings: Enterococcus gallinarum 245
Description: as §2

| Compound | MIC [1] [µg/mL] | MIC [2] [µg/mL] | MIC [3] [µg/mL] | MIC [4] [µg/mL] | MIC [5] [µg/mL] | MIC [7] [µg/mL] | MIC [8] [µg/mL] | MIC [9] [µg/mL] | MIC [10] [µg/mL] | MIC [11] [µg/mL] | MIC [12] [µg/mL] | MIC [13] [µg/mL] | MIC [14] [µg/mL] | MIC [15] [µg/mL] | mean geometric MIC, Vancomycin Resistant Strains [16] [µg/mL] | mean geometric MIC, Vancomycin Sensitive Strains [17] [µg/mL] | MIC [18] [µg/mL] | MIC [20] [µg/mL] | MIC [21] [µg/mL] | MIC [22] [µg/mL] | other results |
| --- | --- | --- | --- | --- | --- | --- | --- | --- | --- | --- | --- | --- | --- | --- | --- | --- | --- | --- | --- | --- | --- |
| CNC(CC(C)C)C(=O)NC1C(=O)NC(CC(N)=O)C(=O)NC2C(=O)NC3C(=O)NC(C(=O)NC(C(=O)O)c4cc(O)cc(O)c4-c4cc3ccc4O)C(OC3CC(C)(N)C(O)C(C)O3)c3ccc(c(Cl)c3)Oc3cc2cc(c3OC2OC(CO)C(O)C(O)C2OC2CC(C)(NCc3c(OC)ccc4ccccc34)C(O)C(C)O2)Oc2ccc(cc2Cl)C1O (centres unmarked) [Compound 9] | 0.5 (≈ 0.284 µM) | ≤ 0.06 | 0.26 (≈ 0.148 µM) | 2 (≈ 1.13 µM) | 4 (≈ 2.27 µM) | ≤ 0.06 | 0.5 (≈ 0.284 µM) | ≤ 0.06 | 1 (≈ 0.567 µM) | ≤ 0.06 | 16 (≈ 9.08 µM) | 4 (≈ 2.27 µM) | 4 (≈ 2.27 µM) | ≤ 0.06 | 11 | 0.38 | – | – | – | – | MIC [6]: 0.5 µg/mL (≈ 0.284 µM) |
| CNC(CC(C)C)C(=O)NC1C(=O)NC(CC(N)=O)C(=O)NC2C(=O)NC3C(=O)NC(C(=O)NC(C(=O)O)c4cc(O)cc(O)c4-c4cc3ccc4O)C(OC3CC(C)(N)C(O)C(C)O3)c3ccc(c(Cl)c3)Oc3cc2cc(c3OC2OC(CO)C(O)C(O)C2OC2CC(C)(NCc3ccc(N(C)c4ccccc4)cc3)C(O)C(C)O2)Oc2ccc(cc2Cl)C1O (centres unmarked) [Compound 178] | 0.5 (≈ 0.28 µM) | ≤ 0.06 | 0.5 (≈ 0.28 µM) | 1 (≈ 0.559 µM) | 0.5 (≈ 0.28 µM) | ≤ 0.06 | – | ≤ 0.06 | 0.25 (≈ 0.14 µM) | 4 (≈ 2.24 µM) | 0.25 (≈ 0.14 µM) | 1 (≈ 0.559 µM) | 2 (≈ 1.12 µM) | ≤ 0.06 | 2.8 | 0.13 | 1 (≈ 0.559 µM) | 1 (≈ 0.559 µM) | ≤ 0.06 | 2 (≈ 1.12 µM) | MIC [19]: 1 µg/mL (≈ 0.559 µM) |
| CNC(CC(C)C)C(=O)NC1C(=O)NC(CC(N)=O)C(=O)NC2C(=O)NC3C(=O)NC(C(=O)NC(C(=O)O)c4cc(O)cc(O)c4-c4cc3ccc4O)C(OC3CC(C)(N)C(O)C(C)O3)c3ccc(c(Cl)c3)Oc3cc2cc(c3OC2OC(CO)C(O)C(O)C2OC2CC(C)(NCCCCCCCCOc3ccc(OC)cc3)C(O)C(C)O2)Oc2ccc(cc2Cl)C1O (centres unmarked) [Compound 200] | 0.5 (≈ 0.274 µM) | ≤ 0.06 | 0.5 (≈ 0.274 µM) | 1 (≈ 0.547 µM) | 0.5 (≈ 0.274 µM) | ≤ 0.06 | 1 (≈ 0.547 µM) | ≤ 0.06 | – | 32 (≈ 17.5 µM) | – | 1 (≈ 0.547 µM) | 2 (≈ 1.09 µM) | ≤ 0.06 | 1.4 | 0.041 | 1 (≈ 0.547 µM) | 0.5 (≈ 0.274 µM) | ≤ 0.06 | 2 (≈ 1.09 µM) | MIC [19]: 1 µg/mL (≈ 0.547 µM) |
| CNC(CC(C)C)C(=O)NC1C(=O)NC(CC(N)=O)C(=O)NC2C(=O)NC3C(=O)NC(C(=O)NC(C(=O)O)c4cc(O)cc(O)c4-c4cc3ccc4O)C(OC3CC(C)(N)C(O)C(C)O3)c3ccc(c(Cl)c3)Oc3cc2cc(c3OC2OC(CO)C(O)C(O)C2OC2CC(C)(NCc3ccc(-c4ccccc4C)cc3)C(O)C(C)O2)Oc2ccc(cc2Cl)C1O (centres unmarked) [Compound 209] | 0.5 (≈ 0.282 µM) | ≤ 0.06 | – | 1 (≈ 0.564 µM) | 1 (≈ 0.564 µM) | ≤ 0.06 | 1 (≈ 0.564 µM) | ≤ 0.06 | ≤ 0.06 | 16 (≈ 9.03 µM) | 0.15 (≈ 0.0846 µM) | 0.5 (≈ 0.282 µM) | 1 (≈ 0.564 µM) | ≤ 0.06 | 1.2 | 0.136 | 0.5 (≈ 0.282 µM) | 1 (≈ 0.564 µM) | ≤ 0.06 | 1 (≈ 0.564 µM) | MIC [6]: 1 µg/mL (≈ 0.564 µM) |
| CNC(CC(C)C)C(=O)NC1C(=O)NC(CC(N)=O)C(=O)NC2C(=O)NC3C(=O)NC(C(=O)NC(C(=O)O)c4cc(O)cc(O)c4-c4cc3ccc4O)C(OC3CC(C)(N)C(O)C(C)O3)c3ccc(c(Cl)c3)Oc3cc2cc(c3OC2OC(CO)C(O)C(O)C2OC2CC(C)(NCc3ccc(-c4ccc(C)c(C)c4)cc3)C(O)C(C)O2)Oc2ccc(cc2Cl)C1O (centres unmarked) [Compound 221] | 0.5 (≈ 0.28 µM) | ≤ 0.06 | – | 1 (≈ 0.56 µM) | 0.5 (≈ 0.28 µM) | ≤ 0.06 | 0.5 (≈ 0.28 µM) | ≤ 0.06 | ≤ 0.06 | 32 (≈ 17.9 µM) | – | 1 (≈ 0.56 µM) | 2 (≈ 1.12 µM) | ≤ 0.06 | 0.71 | 0.041 | 1 (≈ 0.56 µM) | 0.5 (≈ 0.28 µM) | ≤ 0.06 | 2 (≈ 1.12 µM) | MIC [19]: 1 µg/mL (≈ 0.56 µM) |
| CNC(CC(C)C)C(=O)NC1C(=O)NC(CC(N)=O)C(=O)NC2C(=O)NC3C(=O)NC(C(=O)NC(C(=O)O)c4cc(O)cc(O)c4-c4cc3ccc4O)C(OC3CC(C)(N)C(O)C(C)O3)c3ccc(c(Cl)c3)Oc3cc2cc(c3OC2OC(CO)C(O)C(O)C2OC2CC(C)(NCc3ccc(-c4ccc(C)cc4)cc3C)C(O)C(C)O2)Oc2ccc(cc2Cl)C1O (centres unmarked) [Compound 222] | ≤ 0.06 | ≤ 0.06 | ≤ 0.06 | – | 0.5 (≈ 0.28 µM) | – | – | ≤ 0.06 | ≤ 0.06 | 32 (≈ 17.9 µM) | 0.5 (≈ 0.28 µM) | 1 (≈ 0.56 µM) | 1 (≈ 0.56 µM) | ≤ 0.06 | 0.84 | 0.072 | – | ≤ 0.06 | ≤ 0.06 | 1 (≈ 0.56 µM) | MIC [19]: 1 µg/mL (≈ 0.56 µM) |
| CNC(CC(C)C)C(=O)NC1C(=O)NC(CC(N)=O)C(=O)NC2C(=O)NC3C(=O)NC(C(=O)NC(C(=O)O)c4cc(O)cc(O)c4-c4cc3ccc4O)C(OC3CC(C)(N)C(O)C(C)O3)c3ccc(c(Cl)c3)Oc3cc2cc(c3OC2OC(CO)C(O)C(O)C2OC2CC(C)(NCc3ccc(-c4cccc(C)c4)cc3)C(O)C(C)O2)Oc2ccc(cc2Cl)C1O (centres unmarked) [Compound 224] | – | ≤ 0.06 | ≤ 0.06 | 0.5 (≈ 0.282 µM) | 0.5 (≈ 0.282 µM) | ≤ 0.06 | – | ≤ 0.06 | ≤ 0.06 | 32 (≈ 18.1 µM) | – | 1 (≈ 0.564 µM) | 0.5 (≈ 0.282 µM) | ≤ 0.06 | 0.63 | 0.055 | 0.5 (≈ 0.282 µM) | – | ≤ 0.06 | 0.5 (≈ 0.282 µM) | – |
